{"source": "patent US20040116336A1", "about": "“Peptide derivatives” (priority 2002, published 2004)", "key": {"[1]": {"biological_target": "T1, APJ (Homo sapiens, UniProt P35414)", "T1 construct": "expressed in transfected cells; host or cells: CHO (CHO-A10; clone 6 for the cAMP assay)", "T1 sequence (P35414 1-380)": "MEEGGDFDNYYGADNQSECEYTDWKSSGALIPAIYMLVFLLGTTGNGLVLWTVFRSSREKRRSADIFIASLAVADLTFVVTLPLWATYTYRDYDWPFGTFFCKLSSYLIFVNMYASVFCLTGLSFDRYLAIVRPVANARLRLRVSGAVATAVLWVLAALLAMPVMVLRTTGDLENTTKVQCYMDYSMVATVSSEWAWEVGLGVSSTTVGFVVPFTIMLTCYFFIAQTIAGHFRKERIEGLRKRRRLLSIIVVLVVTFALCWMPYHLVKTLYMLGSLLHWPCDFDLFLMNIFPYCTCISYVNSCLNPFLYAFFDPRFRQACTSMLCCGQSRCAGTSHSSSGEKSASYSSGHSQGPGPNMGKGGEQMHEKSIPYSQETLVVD", "test": "Receptor binding assay-1 (125I-labeled compound in Reference Example 1, CHO-A10 membrane fraction)", "settings": "125I-labeled compound in Reference Example 1 at 100 pM", "description": "(§1) This product was mixed with an equal volume of an assay buffer (50 mM Tris-HCl/pH 7.5, 5 mM EDTA, 0.5 mM PMSF, 20 μg/ml leupeptin, 0.1 μg/ml pepstatin A, 4 μg/ml E-64 (Peptide Research Laboratory, Co.), 0.1% bovine serum albumin) and stored at −30° C. before use.\n(§2) CHO-A10 cells were cultured, recovered with PBS containing 5 mM EDTA from a culture vessel, and suspended in the above-mentioned assay buffer not containing bovine serum albumin. The cells were homogenized 3 times at 12,000 rpm for 15 seconds by a Polytron homogenizer (manufactured by Kinematica Inc.) and then centrifuged (1000×g, 4° C., 10 minutes), and the supernatant was recovered. The precipitates were subjected again to the same procedure as above, and the respective supernatants were combined and centrifuged at 100,000×g, 4° C. for 1 hour, to recover precipitates (membrane fraction). The membrane fraction was suspended again in a small amount of the buffer, homogenized with a Teflon homogenizer and stored at −80° C. before use.\n(§3) Binding assay was carried out under the following conditions. […] Measurement of non-specific binding was carried out using a well containing 1 μM unlabeled compound in place of the test sample. After the incubation was finished, a cell harvester (Packard) adapted to 96 wells and a filter unit (GF/C, Packard) were used for separation thereby capturing the membrane fraction on the filter. After the filter was sufficiently dried, Microcinti 0 (Packard) was added thereto, and using Top Count (Packard), the amount of the labeled material captured together with the membrane fraction on the filter was measured."}, "[2]": {"biological_target": "T1, APJ", "test": "Inhibitory activity on forskolin-stimulated cAMP production in CHO-A10 clone 6 cells", "assay_type": "cell-based", "settings": "read-out: EC50", "description": "Measurement of an Inhibitory Activity on Forskolin-Stimulated cAMP Production\nHanks' balanced salt solution (HBSS) containing 0.2 mM 3-isobutyl-1-methylxanthine (IBMX) and 0.05% bovine serum albumin was prepared as an assay buffer, and each well was washed twice with 500 μl assay buffer and pre-incubated at 37° C. for 30 minutes. Further, each well was washed once with 500 μl assay buffer, and a sample dissolved in the assay buffer containing 1 μM forskolin was added at a volume of 500 μl/well and incubated at 37° C. for 30 minutes. Wells incubated with the assay buffer not containing forskolin were prepared in the same manner in order to determine the basal level of cellular cAMP production, while wells incubated with the assay buffer containing forskolin were also prepared in order to determine the maximum level of cAMP production stimulated with forskolin. After incubation was finished, each well was washed once with 500 μl assay buffer, and 500 μl lysis buffer 1B attached to a cAMP EIA system from Amersham was added to each well, to extract cAMP. According to the protocol of the kit, 100 μl of each extract was used to determine the level of cAMP. For the inhibitory activity of the sample on cAMP production, the difference (inhibited cAMP production) between the maximum level and the level of cAMP in the sample-containing wells was determined, and the inhibitory activity was expressed as percentage relative to the increased level of cAMP production stimulated with forskolin (that is, the difference between the maximum level and basal level), and from this dose-reaction curve, the EC50 was determined."}, "[3]": {"biological_target": "T1, APJ", "test": "Receptor binding assay-2 (compound in Reference Example 2 used)", "settings": "compound in Reference Example 2 used as ligand; read-out: IC50", "description": "as §1, §2, §3"}}, "note": "Non-standard residues stand in square brackets, D forms with d. Residues, ends and D or L forms follow the SMILES beside them. No end group written: not given here. Phe(4-Cl) = N[C@@H](Cc1ccc(Cl)cc1)C(=O)O; Cha = N[C@@H](CC1CCCCC1)C(=O)O", "data": [{"compound": "CSCC[C@H](NC(=O)[C@@H]1CCCN1C(=O)CNC(=O)[C@H](CCCCN)NC(=O)[C@H](Cc1c[nH]cn1)NC(=O)[C@H](CO)NC(=O)[C@H](CC(C)C)NC(=O)[C@H](CCCNC(=N)N)NC(=O)[C@@H]1CCCN1C(=O)[C@H](CCCNC(=N)N)NC(=O)[C@H](CCCCNC(=O)[C@H](CCCNC(=N)N)NC(=O)[C@@H](N)CCCNC(=N)N)NC(=O)[C@H](CCCNC(=N)N)NC(=O)[C@@H](N)CCCNC(=N)N)C(=O)N1CCC[C@H]1C(=O)N[C@@H](Cc1ccccc1)C(=O)O", "note": "[Compound in Ex. 21]", "values": [{"measurement": "IC50", "setting": "[1]; room temperature […]", "value": 2.9, "unit": "nM"}, {"measurement": "EC50", "setting": "[2]", "value": 0.57, "unit": "nM"}, {"measurement": "IC50", "setting": "[3]", "value": 0.84, "unit": "nM"}]}, {"compound": "CSCC[C@H](NC(=O)[C@@H]1CCCN1C(=O)CNC(=O)[C@H](CCCNC(=N)N)NC(=O)[C@H](C)NC(=O)[C@H](CO)NC(=O)[C@H](CC(C)C)NC(=O)[C@H](CCCNC(=N)N)NC(=O)[C@@H]1CCCN1C(=O)[C@H](CCCNC(=N)N)NC(=O)[C@H](CCC(N)=O)NC(=O)[C@H](CCCNC(=N)N)NC(=O)[C@@H](N)CCCNC(=N)N)C(=O)O", "note": "[Compound in Ex. 18]", "values": [{"measurement": "IC50", "setting": "[1]; room temperature […]", "value": 2.5, "unit": "nM"}, {"measurement": "EC50", "setting": "[2]", "value": 0.18, "unit": "nM"}, {"measurement": "IC50", "setting": "[3]", "value": 0.023, "unit": "nM"}]}, {"compound": "CSCC[C@H](NC(=O)[C@@H]1CCCN1C(=O)CNC(=O)[C@H](CCCCN)NC(=O)[C@H](Cc1c[nH]cn1)NC(=O)[C@H](CO)NC(=O)[C@H](CC(C)C)NC(=O)[C@H](CCCNC(=N)N)NC(=O)[C@@H]1CCCN1C(=O)[C@H](CCCNC(=N)N)NC(=O)[C@H](C)NC(=O)[C@H](CCCNC(=N)N)NC(=O)[C@@H](N)CCCNC(=N)N)C(=O)N1CCC[C@H]1C(=O)N[C@@H](Cc1ccccc1)C(=O)O", "note": "[Compound in Ex. 25]", "values": [{"measurement": "IC50", "setting": "[1]; room temperature […]", "value": 34, "unit": "nM"}, {"measurement": "EC50", "setting": "[2]", "value": 0.25, "unit": "nM"}, {"measurement": "IC50", "setting": "[3]", "value": 0.067, "unit": "nM"}]}, {"compound": "CSCC[C@H](NC(=O)[C@@H]1CCCN1C(=O)CNC(=O)[C@H](CCCCN)NC(=O)[C@H](Cc1c[nH]cn1)NC(=O)[C@H](CO)NC(=O)[C@H](CC(C)C)NC(=O)[C@H](CCCNC(=N)N)NC(=O)[C@@H]1CCCN1C(=O)[C@@H](N)CCCNC(=N)N)C(=O)N1CCC[C@H]1C(=O)N[C@@H](Cc1ccc(Cl)cc1)C(=O)O", "note": "[Compound in Ex. 8]", "values": [{"measurement": "IC50", "setting": "[1]; room temperature 1.5 hours", "value": 13, "unit": "nM"}, {"measurement": "EC50", "setting": "[2]", "value": 0.34, "unit": "nM"}, {"measurement": "IC50", "setting": "[3]", "value": 0.039, "unit": "nM"}]}, {"compound": "CC(C)C[C@H](NC(=O)[C@H](CCCNC(=N)N)NC(=O)[C@@H]1CCCN1C(=O)[C@@H](N)CCCNC(=N)N)C(=O)N[C@@H](Cc1ccccc1)C(=O)N[C@@H](C)C(=O)N[C@@H](CCCNC(=N)N)C(=O)NCC(=O)N1CCC[C@H]1C(=O)N[C@@H](CC1CCCCC1)C(=O)N1CCC[C@H]1C(=O)N[C@@H](Cc1ccc(Cl)cc1)C(=O)O", "note": "[Compound in Ex. 12] (H-RPRLFARGP[Cha]P[Phe(4-Cl)]-OH)", "values": [{"measurement": "IC50", "setting": "[1]; room temperature […]", "value": 2.3, "unit": "nM"}, {"measurement": "EC50", "setting": "[2]", "value": 1.2, "unit": "nM"}, {"measurement": "IC50", "setting": "[3]", "value": 0.38, "unit": "nM"}]}, {"compound": "C[C@H](NC(=O)[C@H](CCCNC(=N)N)NC(=O)[C@@H]1CCCN1C(=O)[C@@H](N)CCCNC(=N)N)C(=O)N[C@@H](CO)C(=O)N[C@@H](Cc1c[nH]cn1)C(=O)N[C@@H](CCCCN)C(=O)NCC(=O)N1CCC[C@H]1C(=O)N[C@@H](CC1CCCCC1)C(=O)N1CCC[C@H]1C(=O)N[C@@H](Cc1ccc(Cl)cc1)C(=O)O", "note": "[Compound in Ex. 57] (H-RPRASHKGP[Cha]P[Phe(4-Cl)]-OH; N-terminus and C-terminus assumed)", "values": [{"measurement": "EC50", "setting": "[2]", "value": 0.52, "unit": "nM"}, {"measurement": "IC50", "setting": "[3]", "value": 0.17, "unit": "nM"}]}, {"compound": "RPRLFARGPMPF [Compound in Ex. 31]", "values": [{"measurement": "EC50", "setting": "[2]", "value": 0.14, "unit": "nM"}, {"measurement": "IC50", "setting": "[3]", "value": 0.27, "unit": "nM"}]}, {"compound": "CC(C)C[C@H](NC(=O)[C@H](CCCNC(=N)N)NC(=O)[C@@H]1CCCN1C(=O)[C@H](CCCNC(=N)N)NC(=O)[C@H](CCC(N)=O)NC(=O)[C@H](CCCNC(=N)N)NC(=O)[C@@H](N)CCCNC(=N)N)C(=O)N[C@@H](CO)C(=O)N[C@@H](C)C(=O)N[C@@H](CCCNC(=N)N)C(=O)NCC(=O)N(C)C", "note": "[Compound in Ex. 51] (H-RRQRPRLSARG-NMe2)", "values": [{"measurement": "EC50", "setting": "[2]", "value": 0.49, "unit": "nM"}, {"measurement": "IC50", "setting": "[3]", "value": 0.16, "unit": "nM"}]}, {"compound": "CSCC[C@H](NC(=O)[C@@H]1CCCN1C(=O)CNC(=O)[C@H](CCCCN)NC(=O)[C@H](Cc1c[nH]cn1)NC(=O)[C@H](CO)NC(=O)[C@H](CC(C)C)NC(=O)[C@H](CCCNC(=N)N)NC(=O)[C@@H]1CCCN1C(=O)[C@@H](N)CCCNC(=N)N)C(=O)N[C@@H](CC1CCCCC1)C(=O)O", "note": "[Compound in Ex. 36] (H-RPRLSHKGPM[Cha]-OH; N-terminus and C-terminus assumed)", "values": [{"measurement": "EC50", "setting": "[2]", "value": 0.22, "unit": "nM"}, {"measurement": "IC50", "setting": "[3]", "value": 0.51, "unit": "nM"}]}]}
